Test results reported in publication PMC6158189, “A pharmacological probe identifies cystathionine β-synthase as a new negative regulator for ferroptosis” (Cell Death & Disease, 2018).
Entries after “also recorded” stand apart in the source; their conditions may differ.

Legend:
Type in all cases: cell-based
[1] = biological target: T1, hCBS-FL (Homo sapiens, UniProt P35520); assay: H2S in HEK293T cells transiently expressing hCBS (AzMC probe); conditions: 10 μM, 8 h
T1 sequence (P35520 1-551): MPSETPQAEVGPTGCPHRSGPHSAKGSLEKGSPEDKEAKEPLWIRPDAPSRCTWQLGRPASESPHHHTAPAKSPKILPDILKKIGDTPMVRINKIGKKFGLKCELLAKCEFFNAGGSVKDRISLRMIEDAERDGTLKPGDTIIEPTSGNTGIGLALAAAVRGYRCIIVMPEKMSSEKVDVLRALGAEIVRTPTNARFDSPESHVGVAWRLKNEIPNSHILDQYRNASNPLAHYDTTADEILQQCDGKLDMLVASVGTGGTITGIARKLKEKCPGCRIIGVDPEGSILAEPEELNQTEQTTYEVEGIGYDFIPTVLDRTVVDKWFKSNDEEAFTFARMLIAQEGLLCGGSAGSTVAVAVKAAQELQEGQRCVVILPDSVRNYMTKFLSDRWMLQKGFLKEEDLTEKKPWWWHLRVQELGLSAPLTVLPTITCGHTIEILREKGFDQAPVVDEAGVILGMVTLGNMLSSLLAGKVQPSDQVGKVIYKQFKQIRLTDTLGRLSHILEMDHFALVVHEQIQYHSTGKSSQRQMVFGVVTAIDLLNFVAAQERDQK
Description: (§1) HEK293T cells were transiently transfected with empty vector (EV, i and ii), hCBS-FL (iii and iv) or hCSE (v and vi) plasmids, followed by incubation with DMSO (i–iii and v) or 10 μM CH004 (iv and vi) for 8 h before staining with 50 μM AzMC, a H2S-specific probe (“Materials and Methods” section). For larger fluorescent and bright-field images, please see Supplementary Figure 4. The expression levels of hCBS or hCSE in HEK293T cells after transient transfections were determined by western blotting using an anti-CBS antibody (3E1, 1:2000; Abnova) or anti-CSE antibody (1:500, GeneTex). The densities of protein bands for hCBS or hCSE in the blots were quantified with the ImageJ software (National Institutes of Health, Bethesda, MD, USA) and expressed as ratios of respective control (EV group). […] The fluorescent images of the H2S (blue) were accordingly quantified (“Materials and Methods” section) with ImageJ. […] A representative fluorescence image from three independent experiments is shown. […]
(§2) H2S levels in living cells were detected using a H2S-specific fluorescent probe according to a protocol described previously[31],[55]. […] After incubation with 50 μM AzMC at 37 °C for 30 min, the cells were washed 4 times with PBS, and the fluorescent images were recorded with excitation by 405 nm laser by using a A1Si (Nikon) confocal microscope. […]

[2] = biological target: T2, CBS-FL mutant (293T-CBS Q222A) (Homo sapiens, UniProt P35520, Q222A); assay: H2S in HEK293T cells stably expressing CBS Q222A (AzMC probe); conditions: 5 and 10 μM CH004, 8 h
T2 construct: human CBS or hCSE full-length (CBS-FL or CSE) was subcloned into pGEX-KG, pcDNA3 or pCDH vector; expressed in transfected cells
Description: as §1, §2

[3] = biological target: hCSE (Homo sapiens, UniProt P32929); assay: H2S in HEK293T cells transiently expressing hCSE (AzMC probe); conditions: 10 μM, 8 h
Description: as §1, §2

hCSE, sequence (P32929 whole entry): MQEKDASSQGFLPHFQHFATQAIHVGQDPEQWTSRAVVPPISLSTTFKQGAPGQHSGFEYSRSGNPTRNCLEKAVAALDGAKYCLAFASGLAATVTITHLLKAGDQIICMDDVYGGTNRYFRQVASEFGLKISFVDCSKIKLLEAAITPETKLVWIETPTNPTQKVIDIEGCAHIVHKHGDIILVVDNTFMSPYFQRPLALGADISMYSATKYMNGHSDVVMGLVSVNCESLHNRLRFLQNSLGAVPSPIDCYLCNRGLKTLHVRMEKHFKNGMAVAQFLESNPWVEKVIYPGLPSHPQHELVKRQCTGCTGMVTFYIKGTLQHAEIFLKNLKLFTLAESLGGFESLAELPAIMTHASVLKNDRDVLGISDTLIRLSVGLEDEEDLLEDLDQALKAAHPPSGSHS

Structure (SMILES): Cn1nc(Cc2ccccc2)nc2c(=O)n(C)c(=O)nc1-2 [CH004, 3-benzyl-1,6-dimethylpyrimido[5,4-e][1,2,4]triazine-5,7(1H,6H)-dione]
- decrease in H2S [1]: ~ 50%
- effect on H2S [2]: no significant decrease; also recorded: hardly affected
- effect on production of H2S [3]: did not interfere
